Legend:
[1] = system: human non-small cell lung cancer cell line NCI-H460; experiment: Cell proliferation inhibition test by sensitivity-enhancing to ionizing radiation (Cell Titer Glo); assay type: cell-based; conditions: concentration in which SER became 2, NCI-H460 cells, ionizing radiation 2 Gy, cultured 120 hour
Summary of the method: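 Radiosensitisation measured as SER, a ratio of Cell Titer Glo luminescence in irradiated vs unirradiated plates relative to DMSO; SER2, the concentration yielding SER 2, came from sigmoidal regression. Compound (0.1% DMSO) was given 24 h post-seeding, 2 Gy applied 30 min later, then 120 hour culture at 37° C.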

ATM = target: T1, ATM (Homo sapiens, UniProt Q13315); experiment: ATM inhibition test (phosphorylation of Chk2 generated by ionizing radiation, AlphaScreen SureFire); assay type: cell-based; conditions: phosphorylated Chk2 in NCI-H460 cells, ionizing radiation 8Gy, 1 hour after test compound treatment; read-out: ATM inhibitory activity
T1 construct: detecting phosphorylation of Chk2 in a human non-small cell lung cancer cell line NCI-H460 (ATCC company); host or cells: NCI-H460 human non-small cell lung cancer cells
T1 sequence (Q13315 whole entry): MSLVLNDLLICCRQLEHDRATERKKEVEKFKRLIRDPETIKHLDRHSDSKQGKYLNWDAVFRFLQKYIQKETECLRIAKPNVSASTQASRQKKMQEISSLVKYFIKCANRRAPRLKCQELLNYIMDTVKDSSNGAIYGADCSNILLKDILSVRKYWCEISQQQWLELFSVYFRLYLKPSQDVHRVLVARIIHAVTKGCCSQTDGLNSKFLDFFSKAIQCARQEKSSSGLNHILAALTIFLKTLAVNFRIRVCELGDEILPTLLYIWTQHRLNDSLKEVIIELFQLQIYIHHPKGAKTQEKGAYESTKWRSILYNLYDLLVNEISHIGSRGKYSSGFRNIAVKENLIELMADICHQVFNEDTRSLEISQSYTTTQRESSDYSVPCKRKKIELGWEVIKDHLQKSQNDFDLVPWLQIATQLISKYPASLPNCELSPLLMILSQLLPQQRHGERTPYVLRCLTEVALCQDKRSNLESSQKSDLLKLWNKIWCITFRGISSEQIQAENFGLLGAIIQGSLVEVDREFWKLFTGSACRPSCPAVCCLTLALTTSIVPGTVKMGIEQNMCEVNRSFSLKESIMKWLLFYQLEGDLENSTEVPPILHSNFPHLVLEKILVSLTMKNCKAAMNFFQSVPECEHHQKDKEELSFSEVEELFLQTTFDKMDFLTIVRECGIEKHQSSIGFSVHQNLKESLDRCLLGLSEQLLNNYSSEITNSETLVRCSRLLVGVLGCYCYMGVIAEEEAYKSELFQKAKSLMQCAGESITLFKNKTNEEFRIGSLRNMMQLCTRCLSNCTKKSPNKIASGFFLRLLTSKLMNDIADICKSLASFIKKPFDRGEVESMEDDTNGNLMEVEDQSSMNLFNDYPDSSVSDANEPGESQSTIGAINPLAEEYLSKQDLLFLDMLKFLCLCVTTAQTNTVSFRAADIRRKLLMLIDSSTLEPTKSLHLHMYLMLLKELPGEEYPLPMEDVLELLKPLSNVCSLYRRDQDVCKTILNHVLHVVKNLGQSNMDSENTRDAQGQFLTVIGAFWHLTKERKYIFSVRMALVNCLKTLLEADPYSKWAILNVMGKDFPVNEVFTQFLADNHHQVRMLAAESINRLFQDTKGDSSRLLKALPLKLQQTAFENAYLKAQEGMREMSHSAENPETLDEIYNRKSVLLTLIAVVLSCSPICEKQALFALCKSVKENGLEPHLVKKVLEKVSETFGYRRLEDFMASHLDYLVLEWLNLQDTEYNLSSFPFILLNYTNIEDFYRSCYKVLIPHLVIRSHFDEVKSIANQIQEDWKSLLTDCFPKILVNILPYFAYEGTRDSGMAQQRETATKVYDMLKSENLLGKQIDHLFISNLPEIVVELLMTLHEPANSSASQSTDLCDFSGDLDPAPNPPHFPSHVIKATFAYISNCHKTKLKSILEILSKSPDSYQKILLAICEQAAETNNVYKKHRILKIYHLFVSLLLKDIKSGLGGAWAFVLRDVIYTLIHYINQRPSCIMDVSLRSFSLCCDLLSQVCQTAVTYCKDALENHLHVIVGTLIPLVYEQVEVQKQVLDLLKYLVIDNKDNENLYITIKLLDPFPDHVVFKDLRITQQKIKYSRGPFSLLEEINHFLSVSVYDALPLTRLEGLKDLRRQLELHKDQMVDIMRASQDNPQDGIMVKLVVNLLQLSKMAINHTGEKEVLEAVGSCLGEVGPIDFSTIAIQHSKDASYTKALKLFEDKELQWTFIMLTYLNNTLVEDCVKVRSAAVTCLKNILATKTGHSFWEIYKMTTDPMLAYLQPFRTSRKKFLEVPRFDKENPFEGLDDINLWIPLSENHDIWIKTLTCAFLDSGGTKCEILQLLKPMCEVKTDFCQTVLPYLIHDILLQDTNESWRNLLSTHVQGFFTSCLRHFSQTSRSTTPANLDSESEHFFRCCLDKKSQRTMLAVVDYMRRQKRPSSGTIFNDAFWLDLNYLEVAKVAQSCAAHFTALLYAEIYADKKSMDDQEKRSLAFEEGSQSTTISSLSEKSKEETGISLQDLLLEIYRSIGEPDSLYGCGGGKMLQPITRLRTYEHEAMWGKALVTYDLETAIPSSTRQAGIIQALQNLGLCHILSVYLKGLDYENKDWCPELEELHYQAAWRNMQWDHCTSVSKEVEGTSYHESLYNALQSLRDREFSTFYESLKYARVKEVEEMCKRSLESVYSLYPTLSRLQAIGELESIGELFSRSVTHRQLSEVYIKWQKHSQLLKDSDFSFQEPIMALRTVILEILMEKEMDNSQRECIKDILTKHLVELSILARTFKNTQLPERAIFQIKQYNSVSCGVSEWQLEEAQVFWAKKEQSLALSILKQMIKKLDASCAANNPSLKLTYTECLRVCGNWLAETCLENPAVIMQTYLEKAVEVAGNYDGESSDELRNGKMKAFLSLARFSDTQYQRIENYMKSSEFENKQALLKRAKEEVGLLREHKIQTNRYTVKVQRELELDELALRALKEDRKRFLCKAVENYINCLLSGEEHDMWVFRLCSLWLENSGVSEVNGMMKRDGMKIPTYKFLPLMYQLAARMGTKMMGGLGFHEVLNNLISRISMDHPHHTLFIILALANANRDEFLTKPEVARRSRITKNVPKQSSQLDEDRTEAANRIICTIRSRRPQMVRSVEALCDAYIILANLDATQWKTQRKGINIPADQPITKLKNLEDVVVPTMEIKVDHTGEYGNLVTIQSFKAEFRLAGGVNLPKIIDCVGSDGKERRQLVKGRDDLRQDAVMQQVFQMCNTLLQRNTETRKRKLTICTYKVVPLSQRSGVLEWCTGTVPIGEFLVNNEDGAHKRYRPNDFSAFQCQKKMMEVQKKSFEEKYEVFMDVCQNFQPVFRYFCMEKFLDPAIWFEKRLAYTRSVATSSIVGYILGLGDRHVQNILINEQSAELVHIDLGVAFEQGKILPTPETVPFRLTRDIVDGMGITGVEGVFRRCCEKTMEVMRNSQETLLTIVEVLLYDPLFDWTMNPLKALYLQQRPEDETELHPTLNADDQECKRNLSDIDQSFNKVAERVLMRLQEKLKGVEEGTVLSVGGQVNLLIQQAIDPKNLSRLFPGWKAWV
Summary of the method: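 NCI-H460 cells, compound 1 h pre-treatment, 8Gy IR, further 1 h at 37° C in 5% CO2. Read-out: phospho-Chk2 via AlphaScreen SureFire. % inhibition relative to IR-induced signal window (irradiated vs non-irradiated drug-free wells).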

Row | Compound | IC50 (ATM) | SER2 (concentration at which the radiation sensitivity-enhancement ratio reaches 2) [1] | SER2 (concentration at which the radiation sensitivity-enhancement ratio reaches 2) ([1]; Homo sapiens, NCI-H460, 120 h)
1 | Cc1ccnc(C(C)Nc2ccc3c(c2)Sc2cccc(-c4cc(N5CCOCC5)cc(=O)[nH]4)c2S3)c1 (single isomer, unassigned) [Example 1-12-135-2, 6-(7-((1-(4-methylpyridin-2-yl)ethyl)amino)thianthren-1-yl)-4-morpholinopyridin-2(1H)-one] | < 100 nM | 100 to 500 nM | 
2 | O=c1cc(N2CCOCC2)cc(-c2cccc3c2Sc2ccc(NC4CCN(Cc5cccnc5)CC4)cc2S3)[nH]1 [Example 1-24-17, 4-Morpholino-6-(7-((1-(pyridin-3-ylmethyl)piperidin-4-yl)amino)thianthren-1-yl)pyridin-2 (1H)-one] | < 100 nM |  | 100 to 500 nM
3 | COc1cncc(CNc2ccc3c(c2)Sc2cccc(-c4cc(N5CCOCC5)cc(=O)[nH]4)c2S3)c1 [Example 1-44-1, 6-(7-(((5-methoxypyridin-3-yl)methyl)amino)thianthren-1-yl)-4-morpholinopyridin-2(1H)-one] | < 100 nM |  | 500 to 2000 nM
4 | Cc1cc(C(C)Nc2ccc3c(c2)Sc2cccc(-c4cc(N5CCOCC5)cc(=O)[nH]4)c2S3)ncn1 (centres unmarked) [Example 1-12-75, 6-(7-((1-(6-Methylpyrimidin-4-yl)ethyl)amino)thianthren-1-yl)-4-morpholino pyridin-2 (1H)-one] | < 100 nM |  | 100 to 500 nM
5 | COc1cncc(C(C)Nc2ccc3c(c2)Sc2cccc(-c4cc(N5CCOCC5)cc(=O)[nH]4)c2S3)c1 (single isomer, unassigned) [Example 1-12-145-1, 6-(7-((1-(5-methoxypyridin-3-yl)ethyl)amino)thianthren-1-yl)-4-morpholinopyridin-2(1H)-one] | < 100 nM |  | 100 to 500 nM
6 | Cc1ccc(C(Nc2ccc3c(c2)Sc2cccc(-c4cc(N5CCOCC5)cc(=O)[nH]4)c2S3)C2CCCN(C)C2)nc1 (centres unmarked) [Example 1-22-10, 6-(7-(((1-Methylpiperidin-3-yl)(5-methylpyridin-2-yl)methyl)amino)thianthren-1-yl)-4-morpholino pyridin-2(1H)-one] | < 100 nM |  | 100 to 500 nM
7 | CC(CN1CCN(C)CC1)Nc1ccc2c(c1)Sc1cccc(-c3cc(N4CCOCC4)cc(=O)[nH]3)c1S2 (single isomer, unassigned) [Example 1-13-3-2, 6-(7-((1-(4-methylpiperazin-1-yl)propan-2-yl)amino)thianthren-1-yl)-4-morpholinopyridin-2(1H)-one] | < 100 nM |  | 100 to 500 nM
8 | Cc1ccnc(C(CO)Nc2ccc3c(c2)Sc2cccc(-c4cc(N5CCOCC5)cc(=O)[nH]4)c2S3)n1 (centres unmarked) [Example 1-12-90, 6-(7-((2-Hydroxy-1-(4-methylpyrimidin-2-yl)ethyl)amino)thianthren-1-yl)-4-morpholino pyridin-2(1H)-one] | < 100 nM |  | 100 to 500 nM
9 | [2H]C([2H])([2H])C(Nc1ccc2c(c1)Sc1cccc(-c3cc(N4CCOCC4)cc(=O)[nH]3)c1S2)c1cccc(F)n1 (centres unmarked) [Example 1-12-134, 4-Morpholino-6-(7-((2,2,2-trideutero-1-(6-fluoropyridin-2-yl)ethyl)amino)thianthren-1-yl) pyridin-2(1H)-one] | < 100 nM |  | 100 to 500 nM
10 | CN1CCN(CCNc2ccc3c(c2)Sc2cccc(-c4cc(N5CCOCC5)cc(=O)[nH]4)c2S3)CC1 [Example 1-10-9, 6-(7-((2-(4-Methylpiperazin-1-yl)ethyl)amino)thianthren-1-yl)-4-morpholino pyridin-2(1H)-one] | < 100 nM |  | 100 to 500 nM
11 | CNCC(Nc1ccc2c(c1)Sc1cccc(-c3cc(N4CCOCC4)cc(=O)[nH]3)c1S2)c1cc(C)ccn1 (centres unmarked) [Example 1-19-3, 6-(7-((2-(Methylamino)-1-(4-methylpyridin-2-yl)ethyl)amino)thianthren-1-yl)-4-morpholinopyridin-2(1H)-one] | < 100 nM |  | 100 to 500 nM
12 | O=c1cc(N2CCOCC2)cc(-c2cccc3c2Sc2ccc(NC4CCCC4N4CCOCC4)cc2S3)[nH]1 (single isomer, unassigned) [Example 1-16-1-2, 4-morpholino-6-(7-((2-morpholinocyclopentyl)amino)thianthren-1-yl)pyridin-2(1H)-one] | < 100 nM |  | < 100 nM
13 | CC(Nc1ccc2c(c1)Sc1cccc(-c3cc(N4CCOCC4)cc(=O)[nH]3)c1S2)c1nccc(C(F)F)n1 (centres unmarked) [Example 1-12-87, 6-(7-((1-(4-(Difluoromethyl)pyrimidin-2-yl)ethyl)amino)thianthren-1-yl)-4-morpholino pyridin-2(1H)-one] | < 100 nM |  | 100 to 500 nM
14 | Cc1cnc(C(C)Nc2ccc3c(c2)Sc2cccc(-c4cc(N5CCOCC5)cc(=O)[nH]4)c2S3)cn1 (centres unmarked) [Example 1-12-64, 6-(7-((1-(5-Methylpyrazin-2-yl)ethyl)amino)thianthren-1-yl)-4-morpholino pyridin-2(1H)-one] | < 100 nM |  | < 100 nM
15 | Cc1ccc(C2(Nc3ccc4c(c3)Sc3cccc(-c5cc(N6CCOCC6)cc(=O)[nH]5)c3S4)CC2)nc1 [Example 1-50-5, 6-(7-((1-(5-Methylpyridin-2-yl)cyclopropyl)amino)thianthren-1-yl)-4-morpholino pyridin-2(1H)-one] | < 100 nM |  | 100 to 500 nM
16 | CC(CN1CCN(C)CC1)Nc1ccc2c(c1)Sc1cccc(-c3cc(N4CCOCC4)cc(=O)[nH]3)c1S2 (racemic) [Example 1-13-3-1, 6-(7-((1-(4-Methylpiperazin-1-yl)propan-2-yl)amino)thianthren-1-yl)-4-morpholinopyridin-2(1H)-one] | < 100 nM |  | 100 to 500 nM
17 | Cc1cnc(C(CCN(C)C)Nc2ccc3c(c2)Sc2cccc(-c4cc(N5CCOCC5)cc(=O)[nH]4)c2S3)cn1 (centres unmarked) [Example 1-22-2, 6-(7-((3-(Dimethylamino)-1-(5-methylpyrazin-2-yl)propyl)amino)thianthren-1-yl)-4-morpholino pyridin-2 (1H)-one] | < 100 nM |  | 100 to 500 nM

Now from value to molecule, other results behind:

Row | IC50 (ATM) | Compound | SER2 (concentration at which the radiation sensitivity-enhancement ratio reaches 2) [1] | SER2 (concentration at which the radiation sensitivity-enhancement ratio reaches 2) ([1]; Homo sapiens, NCI-H460, 120 h)
18 | < 100 nM | COc1cncc(CNc2ccc3c(c2)Cc2cccc(-c4cc(N5CCOCC5)cc(=O)[nH]4)c2O3)n1 [Example 2-13-9, 6-(7-(((6-Methoxypyrazin-2-yl)methyl)amino)-9H-xanthen-4-yl)-4-morpholino pyridin-2(1H)-one] |  | 500 to 2000 nM
19 | < 100 nM | O=c1cc(N2CCOCC2)cc(-c2nccc3c2Oc2ccc(NCc4cc(Cl)ccn4)cc2C3)[nH]1 [Example 2-41-3, 6-(7-(((4-Chloropyridin-2-yl)methyl)amino)-5H-chromeno [2,3-c]pyridin-1-yl)-4-morpholino pyridin-2(1H)-one] |  | 100 to 500 nM
20 | < 100 nM | COc1cncc(CNc2ccc3c(c2)Sc2cccc(-c4cc(N5CCOCC5)cc(=O)[nH]4)c2O3)c1 [Example 4-8-1, 6-(8-(((5-Methoxypyridin-3-yl)methyl)amino)phenoxathiin-4-yl)-4-morpholinopyridin-2(1H)-one] |  | 100 to 500 nM
21 | < 100 nM | COc1ccnc(CNc2ccc3c(c2)Sc2cccc(-c4cc(N5CCOCC5)cc(=O)[nH]4)c2O3)c1 [Example 4-8-8, 6-(8-(((4-Methoxypyridin-2-yl)methyl)amino)phenoxathiin-4-yl)-4-morpholino pyridin-2 (1H)-one] |  | 100 to 500 nM
22 | < 100 nM | O=c1cc(N2CCOCC2)cc(-c2cccc3c2Oc2ccc(NCc4cccs4)cc2C3)[nH]1 [Example 2-13-6, 4-Morpholino-6-(7-((thiophen-2-ylmethyl)amino)-9H-xanthen-4-yl) pyridin-2(1H)-one] |  | 500 to 2000 nM
23 | < 100 nM | O=c1cc(N2CCOCC2)cc(-c2cccc3c2Oc2ccc(NCc4ccnc(Cl)c4)cc2C3)[nH]1 [Example 2-2-52, 6-(7-(((2-Chloropyridin-4-yl)methyl)amino)-9H-xanthen-4-yl)-4-morpholino pyridin-2 (1H)-one] |  | 500 to 2000 nM
24 | < 100 nM | CC(Nc1ccc2c(c1)Cc1cccc(-c3cc(N4CCOCC4)cc(=O)[nH]3)c1O2)c1cccc(F)n1 (single isomer, unassigned) [Example 2-14-87-1, 6-(7-((1-(6-fluoropyridin-2-yl)ethyl)amino)-9H-xanthen-4-yl)-4-morpholinopyridin-2(1H)-one] |  | 100 to 500 nM
25 | < 100 nM | CN(C)c1ncc(CNc2ccc3c(c2)Cc2cccc(-c4cc(N5CCOCC5)cc(=O)[nH]4)c2O3)cn1 [Example 2-2-17, 6-(7-(((2-(Dimethylamino)pyrimidin-5-yl)methyl)amino)-9H-xanthen-4-yl)-4-morpholino pyridin-2(1H)-one] |  | 500 to 2000 nM

Reference: US9586951B2 (FUJIFILM Corporation, priority 2013, dated 2017)
